Test results reported in patent US7643943B2, “Methods for monitoring drug activities in vivo” (Wyeth LLC, priority 2003, dated 2010).

Columns and labels:
clinical [1] = conditions: human, in vivo
Description: (§1) In a randomized, double-blind, multicenter trial, once-weekly intravenous doses of 25-, 75-, or 250-mg of CCI-779 were administered to patients with advanced renal cancer that were either previously treated, or untreated and not appropriate candidates for high dose interlukin-2 therapy. Whole blood for CCI-779 and metabolite concentrations was drawn for population pharmacokinetic analysis, and Bayesian-predicted area under the concentration-time curves for parent drug (AUC), parent plus metabolite (AUCsum), and cumulative AUC and AUCsum were derived.
(§2) For CCI-779 clearance, factors for dose, attenuation of exposure with multiple-dose, and effect of body surface area were included.
(§3) The following examples were based on a randomized, double-blind, multicenter, outpatient phase 2 study of CCI-779 administered by 30 minute intravenous infusion (via an automatic dispensing pump) in patients with advanced RCC. Eligible patients were randomly assigned to treatment in a 1:1:1 ratio to receive 25 mg, 75 mg, or 250 mg of CCI-779 weekly until evidence of disease progression.
(§4) Full pharmacokinetic profiling was planned in a subset of patients, with remaining patients to provide sparse sampling.
(§5) The bioanalytical method for CCI-779 was performed using whole blood in a liquid chromatography/tandem mass spectrometry (LC/MS/MS) procedure with deuterated internal standard.
(§6) In order to characterize the pharmacokinetic profiles of patients providing sparse blood sampling, fully and sparsely sampled patient data were analyzed collectively using a population pharmacokinetic method and the NONMEM application (version 1.0, Revision 5.0 on Windows NT 4.0 computer with Pentium processor, NONMEM Project Group, University of California at San Francisco, Calif.). […] Data were therefore modeled separately and segregated by analyte into two separate data sets with dose, time/duration of administration, and demographic information. […] Construction of the NONMEM infile was performed using SAS (version 8.1) on a Sun Microsystems mainframe computer with Sun OS 5.8. […] In both cases, the model-derived value for AUC for a given patient and analyte were obtained from the quotient of CCI-779 Dose/Clearance (CL), in which CL was obtained from Bayesian estimation and the POSTHOC option of NONMEM.
(§7) During model building, an exponential error model was applied to the kinetic model.

[2] = human, in vivo
Description: as §1, §2, §3, §4, §5, §6, §7

clinical [3] = conditions: human, in vivo, iv
Description: The pharmacokinetics of CCI-779 is being studied in patients with cancer receiving CCI-779 either alone or in combination with other chemotherapeutic agents following intravenous administration. Intravenous dosage schedules previously investigated include a cyclical schedule (daily for 5 days every two weeks) and a once-weekly regimen. […] The following examples evaluated the safety, efficacy, and pharmacokinetic/pharmacodynamic relationship to clinical response of three doses of CCI-779, when administered to patients with advanced, refractory renal cell cancer (RCC).
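Throughout, for CL: population pharmacokinetic analysis in NONMEM of pooled full and sparse blood sampling from patients, exponential error on kinetic parameters, proportional residual error, bootstrap check over 1,000 resamples.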
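Throughout, for DE on CL (θ6), parameter estimate: population pharmacokinetic analysis in NONMEM of pooled full and sparse blood sampling from patients, exponential error on kinetic parameters, proportional residual error, bootstrap check over 1,000 resamples.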
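Throughout, for DE on V3 (θ7), parameter estimate: population pharmacokinetic analysis in NONMEM of pooled full and sparse blood sampling from patients, exponential error on kinetic parameters, proportional residual error, bootstrap check over 1,000 resamples.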
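Throughout, for Dose effect on CL (θ7), bootstrap sample median: population pharmacokinetic analysis in NONMEM of pooled full and sparse blood sampling from patients, exponential error on kinetic parameters, proportional residual error, bootstrap check over 1,000 resamples.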

CO[C@H]1C[C@@H]2CC[C@@H](C)[C@@](O)(O2)C(=O)C(=O)N2CCCC[C@H]2C(=O)O[C@H]([C@H](C)C[C@@H]2CC[C@@H](O)[C@H](OC)C2)CC(=O)[C@H](C)/C=C(\C)[C@@H](O)[C@@H](OC)C(=O)[C@H](C)C[C@H](C)/C=C/C=C/C=C/1C [sirolimus]
clearance (clinical [1]): 33.2 mL/min
DE on CL (θ6), parameter estimate [2]: 0.422
DE on V3 (θ7), parameter estimate [2]: 0.302
Dose effect on CL (θ7), bootstrap sample median [2]: 0.412
Dose effect on V3 (θ8), bootstrap sample median [2]: 0.231
HCT effect on V3 (θ8), parameter estimate [2]: 0.719
Hematocrit effect on V3 (θ9), bootstrap sample median [2]: 0.768
Inter-Patient Variability % on CL [2]: 63.7%
Inter-Patient Variability % on Ka [2]: 34.6%
Inter-Patient Variability % on V2 [2]: 164%
Inter-Patient Variability % on V3 [2]: 22.8%
Intersubject variability on CL (ω^21), bootstrap sample median [2]: 0.545
Intersubject variability on CL (ω^21), final model parameter estimate [2]: 0.406
Intersubject variability on V2 (ω^22), bootstrap sample median [2]: 1.418
Intersubject variability on V2 (ω^22), final model parameter estimate [2]: 2.72
Intersubject variability on V3 (ω^23), final model parameter estimate [2]: 0.052
Intersubject variability on ka (ω^24), bootstrap sample median [2]: 0.316
Intersubject variability on ka (ω^24), final model parameter estimate [2]: 0.120
Ka (θ5), parameter estimate [2]: 0.087 h⁻¹
Proportional error (ε^2), bootstrap sample median [2]: 0.212
Proportional error (ε^2), final model parameter estimate [2]: 0.0543
Q (θ3), bootstrap sample median [2]: 27.5 L/h
V2 (θ2), bootstrap sample median [2]: 8.24 L
V3 (θ4), bootstrap sample median [2]: 11.6 L
V3 (θ4), parameter estimate [2]: 12.9 L
ka (θ5), bootstrap sample median [2]: 0.0616 h⁻¹
Q (θ3), parameter estimate ([2]; iv): 44.1 L/h
V2 (θ2), parameter estimate ([2]; iv): 10.4 L
CL (θ1), parameter estimate ([2]; iv, 250 mg): 2.05 L/h
half-life (clinical [3]): 60 to 70 h
